Assay results from patent US7932283B2, “Fungicide N-cyclopropyl-sulfonylamide derivatives” (Bayer Cropscience AG, priority 2006, dated 2011).

Assay: logP by HPLC on reversed-phase column (C 18), EEC Directive 79/B31 Annex V.A8, methods A and B
Format: physicochemical
Conditions: reversed-phase HPLC column (C 18)
Experimental: Calibration was carried out using unbranched alkan-2-ones (having 3 to 16 carbon atoms) with known logP values (determination of the logP values by the retention times using linear interpolation between two successive alkanones).

[1] = HPLC reversed-phase C 18, method A: 43° C., 0.1% aqueous phosphoric acid, acetonitrile, linear gradient 10% to 90% acetonitrile
[2] = LogP method B: HPLC reversed-phase C 18, 40° C., 0.1% aqueous formic acid / acetonitrile, linear gradient 10% to 90% acetonitrile
[3] = HPLC reversed-phase C 18, method B: 40° C., 0.1% aqueous formic acid and acetonitrile, linear gradient 10% to 90% acetonitrile
[4] = LogP method A: HPLC reversed-phase C 18, 43° C., 0.1% aqueous phosphoric acid / acetonitrile, linear gradient 10% to 90% acetonitrile

With `Cc1ncc(C(=O)N(C2CC2)S(=O)(=O)c2ccc(O)c(O)c2)s1` [Compound 63] the chromatographic logP [1] was 3.33.
In the case of `COc1nn(C)cc1C(=O)N(C1CC1)S(=O)(=O)c1ccc(Oc2ccccc2O)cc1Br` [Compound 465], the chromatographic logP [2] is reported as 3.5.
`Cc1nn(C)c(F)c1C(=O)N(C1(c2ccc(O)cc2)CC1)S(=O)(=O)c1cccc(O)c1O` [Compound 669] showed a chromatographic logP (Method A: 43° C., 0.1% aqueous phosphoric acid, acetonitrile) of 4.44.
For `Cn1nc(C(F)F)c(C(=O)N(C2CC2)S(=O)(=O)c2ccc(Oc3ccccc3)cc2)c1F` [Compound 107], the chromatographic logP [3] was 3.8.
In the case of `Cn1ncc(I)c1C(=O)N(C1CC1)S(=O)(=O)c1cccc(O)c1O` [Compound 662], the chromatographic logP [2] is reported as 2.8.
`CC(C)c1c(C(=O)N(C2CC2)S(=O)(=O)c2ccc(O)cc2O)sc(=O)n1C1CC1` [Compound 635] showed a chromatographic logP [4] of 2.01.
For `CC(C)c1nn(C)c(F)c1C(=O)N(C1CC1)S(=O)(=O)c1ccccc1O` [Compound 95], the chromatographic logP [3] was 3.1.
Molecule `Cc1oncc1C(=O)N(C1CC1)S(=O)(=O)c1ccc(Oc2ccccc2)cc1` [Compound 606] has a chromatographic logP [2] of 3.7.
For `Cc1nn(C)c(C)c1C(=O)N(C1CC1)S(=O)(=O)c1ccc(O)c(O)c1` [Compound 412], the chromatographic logP [4] was 3.21.
For `CCCOc1nn(C)cc1C(=O)N(C1CC1)S(=O)(=O)c1ccc(Oc2ccc(-n3cncn3)cc2)cc1Br` [Compound 286], the chromatographic logP [3] was 3.
`Cc1nc(C(=O)N(C2CC2)S(=O)(=O)c2ccc(C(F)(F)F)cc2)cs1` [Compound 68] gave a chromatographic logP [1] of 3.18.
For `COc1nn(C)cc1C(=O)N(C1CC1)S(=O)(=O)c1ccc(Oc2ccc(Br)cc2)cc1Br` [Compound 474], the chromatographic logP [2] was 3.9.
`Cc1oncc1C(=O)N(C1CC1)S(=O)(=O)c1ccc(Oc2ccc(Br)cc2)cc1` [Compound 605] showed a chromatographic logP [2] of 3.4.
For `CCc1onc(C(C)C)c1C(=O)N(C1CC1)S(=O)(=O)c1ccc(O)cc1O` [Compound 596], the chromatographic logP [4] was 4.41.
With `COCCn1c(C)c(C(=O)N(C2CC2)S(=O)(=O)c2ccc(O)cc2O)sc1=O` [Compound 620] the chromatographic logP [4] was 2.01.
For `O=C(c1ccsc1I)N(C1CC1)S(=O)(=O)c1ccc(Oc2ccccc2)cc1` [Compound 21], the chromatographic logP [3] was 4.3.
For `Cc1ccsc1C(=O)N(C1CC1)S(=O)(=O)c1cccc(O)c1` [Compound 13], the chromatographic logP [1] was 3.64.
For `CCCCc1ccc(S(=O)(=O)N(C(=O)c2c(C(F)(F)F)nn(C)c2F)C2CC2)cc1` [Compound 359], the chromatographic logP [3] was 4.3.
Molecule `CCCOc1nn(C)cc1C(=O)N(C1CC1)S(=O)(=O)c1ccc(Oc2cccc(C(F)(F)F)c2)cc1Br` [Compound 297] has a chromatographic logP [3] of 4.5.
For `Cc1c(C(=O)N(C2CC2)S(=O)(=O)c2ccc(C(F)(F)F)cc2)sc(=O)n1C` [Compound 612], the chromatographic logP [4] was 2.01.
Work on `COc1nn(C)cc1C(=O)N(C1CC1)S(=O)(=O)c1ccc(Oc2cccc(OC(F)(F)F)c2)cc1Br` [Compound 476] yielded a chromatographic logP [2] of 4.
With `Cc1nc(C(F)(F)F)c(C(=O)N(C2CC2)S(=O)(=O)c2ccc(Oc3ccccc3)cc2)s1` [Compound 66] the chromatographic logP [3] was 4.4.
`Cc1cc(C(=O)N(C2CC2)S(=O)(=O)c2ccc(O)c(O)c2O)c(C)o1` [Compound 6] showed a chromatographic logP [3] of 4.4.
Work on `Cn1nc(C(F)(F)F)c(C(=O)N(C2CC2)S(=O)(=O)c2ccc(Oc3cccc(C#N)c3Cl)cc2)c1F` [Compound 371] yielded a chromatographic logP [3] of 3.7.
`COc1nn(C)cc1C(=O)N(C1CC1)S(=O)(=O)c1ccc(Oc2ccc(O)c(O)c2)cc1Br` [Compound 478] gave a chromatographic logP [2] of 4.2.
Work on `CCCOc1nn(C)cc1C(=O)N(C1CC1)S(=O)(=O)c1ccc(Oc2ccccc2)cc1Br` [Compound 290] yielded a chromatographic logP [3] of 4.1.
Work on `COc1nn(C)c(O)c1C(=O)N(C1CC1)S(=O)(=O)c1ccc(O)c(O)c1O` [Compound 282] yielded a chromatographic logP [3] of 3.8.
`Cn1cc(C(=O)N(C2CC2)S(=O)(=O)c2ccccc2O)c(C(F)(F)F)n1` [Compound 200] showed a chromatographic logP [1] of 2.71.
In the case of `Cn1cc(C(=O)N(C2CC2)S(=O)(=O)c2cccc(O)c2O)c(C(F)F)n1` [Compound 221], the chromatographic logP [3] is reported as 2.9.
With `COc1nn(C)c(O)c1C(=O)N(C1CC1)S(=O)(=O)c1ccc(Oc2ccccc2)cc1` [Compound 280] the chromatographic logP [3] was 3.8.
`Cc1cc(C(=O)N(C2CC2)S(=O)(=O)c2ccccc2O)nc(Cl)n1` [Compound 654] gave a chromatographic logP [4] of 2.93.
Molecule `Cc1noc(C)c1C(=O)N(C1CC1)S(=O)(=O)c1ccc(C(C)(C)C)cc1` [Compound 593] has a chromatographic logP [4] of 4.03.
`COc1ccc(S(=O)(=O)N(C(=O)c2cn(C)nc2OC)C2CC2)cc1OC` [Compound 395] showed a chromatographic logP [3] of 1.9.
Work on `Cn1ncc(I)c1C(=O)N(C1CC1)S(=O)(=O)c1ccc(O)c(O)c1O` [Compound 663] yielded a chromatographic logP [2] of 3.4.
Work on `Cc1nn(C)c(F)c1C(=O)N(C1CC1)S(=O)(=O)c1ccccc1` [Compound 181] yielded a chromatographic logP [1] of 2.28.
`CCOc1nn(C)cc1C(=O)N(C1CC1)S(=O)(=O)c1ccc(Oc2ccc(C)nc2)cc1Br` [Compound 526] showed a chromatographic logP [2] of 2.3.
`Cc1ccc(S(=O)(=O)N(C(=O)c2c(C)nn(C)c2F)C2CC2)cc1` [Compound 183] showed a chromatographic logP [1] of 2.59.
With `CCc1nn(C)c(F)c1C(=O)N(C1CC1)S(=O)(=O)c1ccc(Oc2cccc(C(F)(F)F)c2)cc1` [Compound 388] the chromatographic logP [3] was 4.2.
`Cc1c(C(=O)N(C2CC2)S(=O)(=O)c2ccc(C(C)(C)C)cc2)sc(=O)n1C` [Compound 624] gave a chromatographic logP [4] of 2.01.
`CCCOc1nn(C)cc1C(=O)N(C1CC1)S(=O)(=O)c1ccc(Oc2ccc3ccc(=O)oc3c2)cc1Br` [Compound 287] showed a chromatographic logP [3] of 3.4.
`Cc1nn(C)c(C)c1C(=O)N(C1CC1)S(=O)(=O)c1ccc(C(F)(F)F)cc1` [Compound 403] showed a chromatographic logP [4] of 3.
For `CCOc1nn(C)cc1C(=O)N(C1CC1)S(=O)(=O)C1C=CC(Oc2ccc(Br)c(O)c2)=CC1O` (centres unmarked) [Compound 544], the chromatographic logP [2] was 4.3.
In the case of `Cn1nc(C(F)(F)F)c(C(=O)N(C2CC2)S(=O)(=O)c2ccc(F)cc2Br)c1F` [Compound 368], the chromatographic logP [3] is reported as 3.2.
`Cc1nn(C)c(Oc2ccc(O)cc2)c1C(=O)N(C1CC1)S(=O)(=O)c1ccccc1O` [Compound 261] gave a chromatographic logP [3] of 3.6.
In the case of `CCc1nn(C)c(F)c1C(=O)N(C1CC1)S(=O)(=O)c1ccc(OC)c(OC)c1` [Compound 386], the chromatographic logP [3] is reported as 2.5.
`CCc1nn(C)c(F)c1C(=O)N(C1CC1)S(=O)(=O)c1c(O)cc(O)cc1O` [Compound 379] gave a chromatographic logP [3] of 3.6.
`Cc1nn(C)c(N(C)C)c1C(=O)N(C1CC1)S(=O)(=O)c1ccc(O)c(O)c1O` [Compound 229] showed a chromatographic logP [3] of 3.6.
`COc1nn(C)cc1C(=O)N(C1CC1)S(=O)(=O)c1ccc(Oc2cccc(Br)c2)cc1Br` [Compound 473] showed a chromatographic logP [2] of 3.8.
Molecule `CCc1nn(C)c(F)c1C(=O)N(C1CC1)S(=O)(=O)c1ccc(O)c(O)c1` [Compound 378] has a chromatographic logP [3] of 3.8.
With `Cc1noc(C)c1C(=O)N(C1CC1)S(=O)(=O)c1ccc(O)cc1O` [Compound 592] the chromatographic logP [4] was 3.41.
Molecule `CCOc1nn(C)cc1C(=O)N(C1CC1)S(=O)(=O)c1ccc(Oc2cccc(Br)c2)cc1Br` [Compound 540] has a chromatographic logP [2] of 4.2.
`COc1nn(C)cc1C(=O)N(C1CC1)S(=O)(=O)c1ccc(Oc2ccc(O)cc2Cl)cc1Br` [Compound 477] showed a chromatographic logP [2] of 4.1.
With `COc1nn(C)cc1C(=O)N(C1CC1)S(=O)(=O)c1ccc(Oc2ccc(C(F)(F)F)cc2)cc1Br` [Compound 475] the chromatographic logP [2] was 3.9.
For `Cc1nc(C(F)(F)F)c(C(=O)N(C2CC2)S(=O)(=O)c2ccccc2O)s1` [Compound 59], the chromatographic logP [1] was 3.2.
Work on `Cc1cc(C(=O)N(C2CC2)S(=O)(=O)c2ccc(Oc3ccc(Br)cc3)cc2)nn1C` [Compound 77] yielded a chromatographic logP [3] of 4.
`CCc1nn(C)c(F)c1C(=O)N(C1CC1)S(=O)(=O)c1ccc(Oc2ccc(Br)cc2)cc1` [Compound 390] gave a chromatographic logP [3] of 4.4.
Molecule `Cc1c(C(=O)N(C2CC2)S(=O)(=O)c2ccc(C(F)(F)F)cc2)sc(=O)n1Cc1ccccc1` [Compound 614] has a chromatographic logP [4] of 4.08.
`COc1cscc1C(=O)N(C1CC1)S(=O)(=O)c1ccc(Oc2ccccc2)cc1` [Compound 26] gave a chromatographic logP [3] of 3.9.
`O=C(c1cccnc1O)N(C1CC1)S(=O)(=O)c1ccc(Oc2ccc(Br)cc2)cc1` [Compound 648] gave a chromatographic logP [2] of 4.3.
In the case of `Cn1nc(C(F)(F)F)c(C(=O)N(C2CC2)S(=O)(=O)c2c(O)cc(C(F)(F)F)cc2O)c1F` [Compound 373], the chromatographic logP [3] is reported as 3.9.
`CCCCCc1ccc(Oc2ccc(S(=O)(=O)N(C(=O)c3cn(C)nc3OCC)C3CC3)c(Br)c2)cc1` [Compound 560] gave a chromatographic logP [2] of 5.6.
Molecule `Cc1cc(C)c(C(=O)N(C2CC2)S(=O)(=O)c2cccc(O)c2O)c(O)n1` [Compound 650] has a chromatographic logP [4] of 3.57.
Work on `Cc1c(C(=O)N(C2CC2)S(=O)(=O)c2ccc(C(C)(C)C)cc2)sc(=O)n1Cc1ccccc1` [Compound 628] yielded a chromatographic logP [4] of 3.01.
With `COc1nn(C)cc1C(=O)N(C1CC1)S(=O)(=O)c1c(O)cc(Cl)cc1O` [Compound 461] the chromatographic logP [2] was 2.7.
`Cc1oncc1C(=O)N(C1CC1)S(=O)(=O)c1ccc(O)c(O)c1O` [Compound 604] gave a chromatographic logP [2] of 2.6.
In the case of `Cc1c(C(=O)N(C2CC2)S(=O)(=O)c2ccc(O)c(C(F)(F)F)c2)sc(=O)n1C` [Compound 622], the chromatographic logP [4] is reported as 2.01.
Molecule `COc1nn(C)cc1C(=O)N(C1CC1)S(=O)(=O)c1cnc(O)c(Br)c1` [Compound 449] has a chromatographic logP [2] of 2.
`Cc1nn(C)c(C(=O)N(C2CC2)S(=O)(=O)c2cccc(O)c2O)c1Cl` [Compound 586] gave a chromatographic logP [2] of 3.7.
With `CCOC(=O)c1[nH]c(C)c(C(=O)N(C2CC2)S(=O)(=O)c2cccc(O)c2O)c1C` [Compound 34] the chromatographic logP [3] was 3.5.
Molecule `CCc1nn(C)c(F)c1C(=O)N(C1CC1)S(=O)(=O)c1c(C)nn(C)c1O` [Compound 382] has a chromatographic logP [3] of 2.3.
`CCc1nn(C)c(F)c1C(=O)N(C1CC1)S(=O)(=O)c1cc(O)cc(O)c1` [Compound 376] showed a chromatographic logP [3] of 3.9.
